Experimental data from ChEMBL document CHEMBL1201862, “PubChem BioAssay data set” (2004).
Active and inactive are the calls of the source.

What was measured:
[1] = molecular target: Oxytocin receptor (Homo sapiens, UniProt P30559); experiment: Fluorescence-based cell-based high throughput dose response assay for agonists of the Oxytocin Receptor (OXTR). [Related pubchem assays: 2435 (Primary screen (OXTR agonists in singlicate)), 434991 (Counterscreen (V1R agonists in triplicate)), 2482 (Summary (OXTR agonists)), 434963 (Confirmation screen (OXTR agonists in triplicate))]; assay type: functional
[2] = molecular target: Vasopressin V1a receptor (Homo sapiens, UniProt P37288); experiment: Counterscreen for Oxytocin Receptor (OXTR) agonists: Fluorescence-based cell-based high throughput dose response assay to identify agonists of the vasopressin 1 receptor (V1R). [Related pubchem assays: 2435 (Primary screen (OXTR agonists in singlicate)), 434991 (Counterscreen (V1R agonists in triplicate)), 2482 (Summary (OXTR agonists)) …; assay type: functional
[3] = test system: INS1; experiment: INS-1E survival protection against cytokine death – cell-based, luminescence, retest, dose response (AID 449756); assay type: functional; settings: Rattus norvegicus;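 note: cell death triggered by IL-1 beta plus TNF-alpha plus IFN-gamma mixture; protective hits raise ATP signal compared with cytokine alone wells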
[4] = viability of PTEN-deleted HCT116 cells – cell-based, HCT116 PTEN knockout, dose response (AID 1047); assay type: functional;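 note: HCT116 colon tumor cells with PTEN knocked out; cells exposed to compound for 60 hours before readout; potency for loss of cell viability measured by luminescence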
[5] = Luminescence Cell-Based Dose Retest to Confirm Inhibitors of Cancer Stem Cells. [Related pubchem assays (depositor defined):AID2717, AID2721]; assay type: functional; settings: Homo sapiens
[6] = viability of HCT116 lacking mutant beta-catenin – cell-based, human colon tumor, dose response (AID 1045); assay type: functional;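 note: HCT116 colon tumor cells with beta catenin knocked out; cells exposed to compound for 60 hours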
[7] = A cytotoxicity screen of small molecule inhibitors of the PhoP region in Salmonella typhi identified in the primary screen. [Related pubchem assays: 1850, 1864, 1985 ]; assay type: functional
[8] = molecular target: T1, Polyadenylate-binding protein 1 (Homo sapiens, UniProt P11940); experiment: blockers of PABP interaction with poly(A) – biochemical, fluorescence polarization, […] (AID 2014)
[9] = molecular target: Eukaryotic translation initiation factor 4H (Homo sapiens, UniProt Q15056); experiment: eIF4H binding inhibition – biochemical, uHTS, fluorescence polarization, translation initiation inhibitor project, primary screen (AID 2012)
[10] = molecular target: Peroxisome proliferator-activated receptor gamma/Nuclear receptor coactivator 3 (Homo sapiens, UniProt P37231); experiment: (§1) TR-FRET dose response biochemical High Throughput Screening assay for agonists of the steroid receptor coactivator 3 (SRC-3) recruitment by the peroxisome proliferator-activated receptor gamma (PPAR gamma): non-selective agonists. [Related pubchem assays: 1301 (Confirmation screen.), 1048 (Primary screen.)]; assay type: functional
[11] = molecular target: Peroxisome proliferator-activated receptor gamma/Nuclear receptor coactivator 1 (Homo sapiens, UniProt P37231); experiment: as §1, with “1 (SRC-1)” for “3 (SRC-3)”, “assays (depositor defined):AID1300, AID1808, AID504735, AID631]” for “assays: 1301 (Confirmation screen.), 1048 (Primary screen.)]”; assay type: protein assay
[12] = molecular target: Neuropeptide Y receptor type 2 (Homo sapiens, UniProt P49146); experiment: Fluorescence-based cell-based high-throughput dose response assay for agonists of NPY-Y2. [Related pubchem assays: 1703 (Screening assay (CNGC inhibitors).), 1359 (Screening assay (NPY-Y2 potentiators or agonists).), 1304 (Screening assay (NPY-Y1 potentiators or agonists).), 1710 (Screening assay (NPY-Y2 agonists).), 1791 (Summary AID.)]; assay type: functional
[13] = molecular target: Peroxisome proliferator-activated receptor gamma/Nuclear receptor coactivator 2 (Homo sapiens, UniProt P37231); experiment: TR-FRET dose response biochemical High Throughput Screening assay for agonists of the steroid receptor coactivator 2 (SRC-2) recruitment by the peroxisome proliferator-activated receptor gamma (PPAR gamma): non-selective agonists. [Related pubchem assays: 1297, 1032 ]; assay type: functional
[14] = molecular target: Neuropeptide Y receptor type 1 (Homo sapiens, UniProt P25929); experiment: Fluorescence-based counterscreen for agonists of NPY-Y2: cell-based high-throughput dose response assay for agonists of NPY-Y1.; assay type: functional
[15] = test system: HEK293; experiment: Fluorescence-based counterscreen for potentiators or agonists of NPY-Y2: cell-based high-throughput dose response assay to identify inhibitors of cyclic nucleotide gated ion channel (CNGC) activity. In this assay, the parental HEK293 cell line transfected with a cyclic-nucleotide gated ion channel (CNGC)-based cAMP sensor is used to measure inhibition of isoproterenol-induced CNGC activity by test compound.; assay type: functional; settings: Homo sapiens;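 note: stimulus is 1 µM isoproterenol at EC100 plus PDE inhibitor Ro 20-1724 at 25 µM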
[16] = NIH-3T3 fibroblast cytotoxicity, dose response, cytotoxicity control, cell-based, fluorescence, Alamar Blue, secondary assay (AID 2327); assay type: functional;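 note: NIH-3T3 mouse fibroblasts cultured with fluconazole at 8 µg/mL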
[17] = fluconazole-exposed Candida albicans growth modulators – fluorescence, retest, confirmation (AID 2467); assay type: functional, cell-based
[18] = molecular target: T1, Polyadenylate-binding protein 1; experiment: MLLE binding blockers, Cy5 peptide tracer – biochemical, fluorescence polarization, Cy5-PAM2 peptide, secondary, miRNA deadenylation inhibitor project, dose response (AID 602260); assay type: functional; settings: read-out: IC50_Mean
[19] = molecular target: Serine/threonine-protein phosphatase (Homo sapiens, UniProt Q9BPW0); experiment: Counterscreen for inhibitors of PP1: fluorescence-based biochemical high throughput dose response assay to identify inhibitors of Protein Phosphatase 5 (PP5). [Related pubchem assays: 2034 (Summary (PP5 inhibitors)), 1987 (PP5 inhibitors in singlate), 2235 (PP1 inhibitors in singlate)]
[20] = molecular target: Heat shock protein HSP 90-alpha (Homo sapiens, UniProt P07900); assay type: functional, organism-based
[21] = test system: Vero; experiment: viability of Vero cells under compound – cytotoxicity control for flavivirus capping enzyme inhibitors (AID 588742); assay type: functional; settings: Chlorocebus sabaeus
[22] = molecular target: Serine/threonine-protein phosphatase PP1-alpha catalytic subunit (Homo sapiens, UniProt P62136); experiment: inhibition of protein phosphatase 1 activity – biochemical, fluorescence, dose response (AID 2403);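 note: phosphatase turnover of OMFP into fluorescent 3-O-methylfluorescein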
[23] = molecular target: Ras and Rab interactor 1/Tyrosine-protein kinase ABL1 (Homo sapiens, UniProt P00519+Q13671); assay type: functional;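 note: biochemical TR-FRET dose-response test measuring inhibition of binding between Rin1 and Abl proteins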
[24] = molecular target: T1, Polyadenylate-binding protein 1; experiment: MLLE domain peptide-binding blockers, IC50 – biochemical, fluorescence polarization, FITC-PAM2 peptide, dose response (AID 602259); assay type: functional; settings: read-out: IC50_Mean
[25] = molecular target: Genome polyprotein (dengue virus type 2, UniProt P29990); experiment: flavivirus cap methylation enzyme inhibition – biochemical, confirmation dose response, primary screen (AID 588689); assay type: functional
[26] = test system: Staphylococcus aureus; experiment: Inhibitors of Bacterial Quorum Sensing Structure Activity Relationship (SAR) Analysis: Dose Response Assay. [Related pubchem assays: 700, 527 ]; assay type: functional, organism-based

T1 sequence (P11940 whole entry): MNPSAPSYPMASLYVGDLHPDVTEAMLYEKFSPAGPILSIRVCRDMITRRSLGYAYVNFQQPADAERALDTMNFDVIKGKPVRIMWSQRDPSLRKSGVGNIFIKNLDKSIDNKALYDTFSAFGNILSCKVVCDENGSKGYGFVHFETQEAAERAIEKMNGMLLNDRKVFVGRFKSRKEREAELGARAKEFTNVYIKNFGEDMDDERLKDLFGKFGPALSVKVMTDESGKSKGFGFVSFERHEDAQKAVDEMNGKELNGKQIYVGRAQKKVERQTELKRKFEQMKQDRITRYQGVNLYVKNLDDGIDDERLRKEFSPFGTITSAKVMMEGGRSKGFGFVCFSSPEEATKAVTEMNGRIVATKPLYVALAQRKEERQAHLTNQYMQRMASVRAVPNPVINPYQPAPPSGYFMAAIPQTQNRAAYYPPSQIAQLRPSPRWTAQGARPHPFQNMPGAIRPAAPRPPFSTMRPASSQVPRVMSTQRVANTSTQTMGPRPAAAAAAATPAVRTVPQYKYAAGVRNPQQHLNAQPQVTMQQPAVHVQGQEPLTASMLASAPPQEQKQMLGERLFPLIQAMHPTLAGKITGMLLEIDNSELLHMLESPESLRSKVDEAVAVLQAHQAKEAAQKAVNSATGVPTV
Chain of Vasopressin V1a receptor (P37288 whole entry): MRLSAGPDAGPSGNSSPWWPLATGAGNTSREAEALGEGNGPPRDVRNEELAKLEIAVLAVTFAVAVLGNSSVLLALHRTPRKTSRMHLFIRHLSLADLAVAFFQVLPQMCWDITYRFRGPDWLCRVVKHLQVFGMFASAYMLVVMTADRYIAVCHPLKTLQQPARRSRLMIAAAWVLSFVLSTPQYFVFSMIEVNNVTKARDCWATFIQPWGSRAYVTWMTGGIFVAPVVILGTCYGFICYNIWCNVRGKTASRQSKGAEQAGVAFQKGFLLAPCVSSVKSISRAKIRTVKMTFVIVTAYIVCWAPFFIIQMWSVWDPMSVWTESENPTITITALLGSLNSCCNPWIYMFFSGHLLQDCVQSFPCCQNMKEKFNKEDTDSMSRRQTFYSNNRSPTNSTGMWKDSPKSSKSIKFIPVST
Chain of Peroxisome proliferator-activated receptor gamma/Nuclear receptor coactivator 3 (P37231 whole entry): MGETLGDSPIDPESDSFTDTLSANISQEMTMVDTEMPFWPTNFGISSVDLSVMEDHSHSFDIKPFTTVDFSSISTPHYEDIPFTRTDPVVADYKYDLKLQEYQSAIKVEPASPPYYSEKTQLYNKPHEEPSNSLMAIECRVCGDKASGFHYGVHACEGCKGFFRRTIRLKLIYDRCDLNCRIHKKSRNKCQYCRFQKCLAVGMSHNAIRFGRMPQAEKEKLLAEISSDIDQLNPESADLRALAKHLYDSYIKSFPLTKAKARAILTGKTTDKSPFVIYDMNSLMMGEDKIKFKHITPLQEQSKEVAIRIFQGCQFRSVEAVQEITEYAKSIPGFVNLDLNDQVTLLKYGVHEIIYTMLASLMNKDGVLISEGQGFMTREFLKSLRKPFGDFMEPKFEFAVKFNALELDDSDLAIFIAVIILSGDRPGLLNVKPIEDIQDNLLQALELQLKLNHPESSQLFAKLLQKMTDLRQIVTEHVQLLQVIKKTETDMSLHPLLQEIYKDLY
Chain of Peroxisome proliferator-activated receptor gamma/Nuclear receptor coactivator 3 (Q9Y6Q9 whole entry, further chain): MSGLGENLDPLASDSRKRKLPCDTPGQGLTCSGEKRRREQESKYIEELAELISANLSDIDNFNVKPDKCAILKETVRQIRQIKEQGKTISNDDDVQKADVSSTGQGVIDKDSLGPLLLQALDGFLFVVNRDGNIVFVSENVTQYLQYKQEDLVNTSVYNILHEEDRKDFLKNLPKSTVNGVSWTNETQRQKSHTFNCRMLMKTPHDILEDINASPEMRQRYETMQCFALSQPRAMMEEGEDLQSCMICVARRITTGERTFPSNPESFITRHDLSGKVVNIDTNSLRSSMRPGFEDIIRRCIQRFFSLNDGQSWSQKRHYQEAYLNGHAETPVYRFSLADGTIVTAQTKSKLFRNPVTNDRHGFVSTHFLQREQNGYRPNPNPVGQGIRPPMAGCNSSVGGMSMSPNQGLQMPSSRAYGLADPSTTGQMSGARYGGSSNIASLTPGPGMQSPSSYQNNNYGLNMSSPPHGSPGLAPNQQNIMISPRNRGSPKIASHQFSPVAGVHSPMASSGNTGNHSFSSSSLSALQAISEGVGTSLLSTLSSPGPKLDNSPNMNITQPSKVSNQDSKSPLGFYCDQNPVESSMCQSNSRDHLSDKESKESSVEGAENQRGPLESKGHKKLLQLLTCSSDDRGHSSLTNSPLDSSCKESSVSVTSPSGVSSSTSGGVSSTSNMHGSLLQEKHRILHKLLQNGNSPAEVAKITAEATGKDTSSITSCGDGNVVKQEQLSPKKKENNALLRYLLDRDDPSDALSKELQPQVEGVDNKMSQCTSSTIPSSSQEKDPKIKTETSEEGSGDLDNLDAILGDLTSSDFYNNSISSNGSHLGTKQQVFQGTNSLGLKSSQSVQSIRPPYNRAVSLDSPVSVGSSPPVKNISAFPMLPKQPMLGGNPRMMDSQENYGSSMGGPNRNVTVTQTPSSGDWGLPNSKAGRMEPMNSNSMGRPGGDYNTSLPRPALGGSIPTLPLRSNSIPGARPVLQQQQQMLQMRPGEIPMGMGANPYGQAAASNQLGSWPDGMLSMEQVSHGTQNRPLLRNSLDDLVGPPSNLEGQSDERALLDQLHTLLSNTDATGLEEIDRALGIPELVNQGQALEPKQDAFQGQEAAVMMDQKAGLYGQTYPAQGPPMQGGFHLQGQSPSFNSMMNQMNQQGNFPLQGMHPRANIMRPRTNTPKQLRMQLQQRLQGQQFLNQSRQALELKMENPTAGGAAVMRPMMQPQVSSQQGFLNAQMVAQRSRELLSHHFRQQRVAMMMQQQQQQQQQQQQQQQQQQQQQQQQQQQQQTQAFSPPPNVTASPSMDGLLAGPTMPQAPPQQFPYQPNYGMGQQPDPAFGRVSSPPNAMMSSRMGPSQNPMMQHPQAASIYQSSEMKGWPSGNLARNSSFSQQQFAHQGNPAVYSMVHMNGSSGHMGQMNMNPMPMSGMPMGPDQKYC
Chain of Serine/threonine-protein phosphatase PP1-alpha catalytic subunit (P62136 whole entry): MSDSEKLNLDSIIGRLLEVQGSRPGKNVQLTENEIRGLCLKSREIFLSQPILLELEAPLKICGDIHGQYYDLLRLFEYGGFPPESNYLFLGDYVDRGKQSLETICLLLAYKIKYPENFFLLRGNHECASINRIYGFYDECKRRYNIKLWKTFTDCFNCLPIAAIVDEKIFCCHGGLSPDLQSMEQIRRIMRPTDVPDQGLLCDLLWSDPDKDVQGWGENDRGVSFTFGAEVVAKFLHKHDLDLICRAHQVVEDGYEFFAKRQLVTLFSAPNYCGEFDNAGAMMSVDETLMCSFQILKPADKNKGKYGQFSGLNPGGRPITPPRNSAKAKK
Chain of Oxytocin receptor (P30559 whole entry): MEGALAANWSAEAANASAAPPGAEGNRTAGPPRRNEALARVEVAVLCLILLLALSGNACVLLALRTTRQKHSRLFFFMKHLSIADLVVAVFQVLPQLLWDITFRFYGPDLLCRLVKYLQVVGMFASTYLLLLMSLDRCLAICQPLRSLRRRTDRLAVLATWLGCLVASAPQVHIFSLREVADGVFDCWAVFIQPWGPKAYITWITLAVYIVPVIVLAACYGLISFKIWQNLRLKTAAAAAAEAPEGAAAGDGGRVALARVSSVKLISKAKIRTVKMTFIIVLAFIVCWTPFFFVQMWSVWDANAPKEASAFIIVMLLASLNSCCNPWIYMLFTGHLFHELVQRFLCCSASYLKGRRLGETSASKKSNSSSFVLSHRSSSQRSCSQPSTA
Chain of Neuropeptide Y receptor type 1 (P25929 whole entry): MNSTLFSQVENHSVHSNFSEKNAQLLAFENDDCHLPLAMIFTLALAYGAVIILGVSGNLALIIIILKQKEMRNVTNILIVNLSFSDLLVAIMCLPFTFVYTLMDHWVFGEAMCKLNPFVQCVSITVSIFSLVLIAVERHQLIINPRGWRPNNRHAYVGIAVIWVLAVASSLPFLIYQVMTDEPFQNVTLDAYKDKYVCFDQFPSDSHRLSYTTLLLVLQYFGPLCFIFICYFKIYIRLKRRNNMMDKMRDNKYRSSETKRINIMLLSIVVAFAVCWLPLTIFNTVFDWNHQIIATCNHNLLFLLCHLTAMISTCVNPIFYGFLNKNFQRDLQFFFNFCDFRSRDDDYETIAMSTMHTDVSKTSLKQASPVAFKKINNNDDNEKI
Chain of Serine/threonine-protein phosphatase (Q9BPW0 whole entry): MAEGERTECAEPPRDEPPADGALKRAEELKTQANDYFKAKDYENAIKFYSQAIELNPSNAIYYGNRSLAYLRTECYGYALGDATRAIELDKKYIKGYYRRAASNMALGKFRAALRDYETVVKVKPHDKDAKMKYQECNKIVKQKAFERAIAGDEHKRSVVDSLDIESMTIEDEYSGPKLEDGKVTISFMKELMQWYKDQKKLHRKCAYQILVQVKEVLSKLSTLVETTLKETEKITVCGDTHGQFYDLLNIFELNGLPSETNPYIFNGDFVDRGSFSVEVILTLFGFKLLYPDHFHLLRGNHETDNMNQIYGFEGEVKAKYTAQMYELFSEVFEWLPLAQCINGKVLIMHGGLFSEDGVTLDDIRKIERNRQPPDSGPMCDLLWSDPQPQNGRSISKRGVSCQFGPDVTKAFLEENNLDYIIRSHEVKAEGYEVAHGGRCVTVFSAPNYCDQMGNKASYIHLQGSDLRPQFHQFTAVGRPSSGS

## COc1ccc(C2NCCc3c2[nH]c2ccccc32)cc1COc1ccc(F)cc1 (stereo unspecified)
[1]
  EC50: 26.7 µM (not active)
[2]
  EC50: 20.8 µM (not active)
[3]
  AC50: 6.96 µM (active)
[4]
  EC50: 6.19 µM (active)
[5]
  AC50: 5.89 µM (active)
[6]
  EC50: 7.05 µM (active)

## Cc1nn(-c2cc(N3CCNCC3)ccc2[N+](=O)[O-])c(=O)c2ccccc12
[7]
  EC50: > 50 µM (active)

## C[N+]1(C)[C@@H]2CC[C@H]1CC(OC(=O)C(c1ccccc1)c1ccccc1)C2 (stereo partly specified)
[8]
  IC50: 6.66 µM (active)
[9]
  IC50: > 100 µM (inactive)

## CC(C)OC(=O)C(C)Nc1nnc(S)nc1O (stereo unspecified)
[10]
  EC50: 35.1 µM (not active)
[11]
  EC50: 4.26 µM (active)
[12]
  EC50: > 35.4 µM (not active)
[13]
  EC50: 4.97 µM (active)
[14]
  EC50: > 35.4 µM (not active)
[15]
  EC50: > 35.4 µM (not active)

## CN1CCN(C(c2ccccn2)c2cc(Cl)c3cccnc3c2O)CC1 (stereo unspecified)
[16]
  EC50: 24.9 µM (active)
[17]
  EC50: 1.42 µM (active)
[18]
  IC50: > 66 µM (inactive)
[19]
  IC50: 47.6 µM (not active)
[20]
  AC50: 6.54 µM (active)
[21]
  CC50: 37.2 µM (active)
[22]
  IC50: 4.17 µM (active)
[23]
  IC50: > 73.5 µM (inactive)
[24]
  IC50: > 66 µM (inactive)
[25]
  IC50: > 100 µM (active)

## O=C(NCC(c1cccnc1)N1CCN(c2ccccc2F)CC1)c1cccc(Cl)c1 (stereo unspecified)
[26]
  IC50: 0.597 µM (active)
